Test results: ChEMBL document CHEMBL1201862, “PubChem BioAssay data set” (2004)
The source made the active and inactive calls.

What was measured:
[1] = NIH-3T3 fibroblast cytotoxicity, dose response, cytotoxicity control, cell-based, fluorescence, Alamar Blue, secondary assay (AID 2327); format: functional;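 also: NIH-3T3 mouse fibroblasts cultured with fluconazole at 8 µg/mL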
[2] = test system: Streptococcus sp. 'group A'; experiment: growth inhibition of control SK(-) GAS strain, dose response, counter-screen for streptokinase expression inhibitor project, luminescence, kanamycin, BacTiterGlo, confirmation (AID 1900); format: functional, organism-based
[3] = C. albicans growth with fluconazole, confirmation, fluorescence, retest (AID 2467); format: functional, cell-based
[4] = inhibitors of intracellular T. cruzi replication, confirmation, NIH3T3 host cells, beta-gal luminescence (AID 2044); format: functional, cell-based;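 also: intracellular parasites grown in NIH/3T3 mouse fibroblasts as host cells; luminescent beta-galactosidase reporter signal from transgenic T. cruzi replicating inside host cells; inhibitors lower the luminescence signal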
[5] = cytotoxicity toward NIH3T3 fibroblasts, dose response, counter-screen, cell-based, ATP luminescence, mouse fibroblasts (AID 2010); format: functional;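 also: cells exposed to compound for about 90 hours before reading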
[6] = biological target: Heat shock protein HSP 90-alpha (Homo sapiens, UniProt P07900); experiment: Luminescence-based dose response biochemical high throughput screening assay for inhibitors of the Heat Shock Protein 90 (HSP90). [Related pubchem assays: 1831 (Summary AID.), 1846 (Confirmation screen.), 1789 (Primary screen.)]
Streptococcus = experiment: Group A Streptococcus viability loss, dose response, counter-screen for streptokinase expression inhibitor project, luminescence, BacTiterGlo (AID 1915); format: functional, organism-based;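 also: potency for reduction of bacterial viability or growth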
[7] = HepG2 cell cytotoxicity, dose response, cytotoxicity control for non-replicating M. tuberculosis project (AID 489018); format: functional; conditions: Mycobacterium tuberculosis
[8] = biological target: C-C chemokine receptor type 6 (Homo sapiens, UniProt P51684); experiment: CCR6 receptor antagonists, dose response, cell-based, luminescent beta-arrestin readout (AID 504728); format: functional
Sequence of C-C chemokine receptor type 6 (P51684 whole entry): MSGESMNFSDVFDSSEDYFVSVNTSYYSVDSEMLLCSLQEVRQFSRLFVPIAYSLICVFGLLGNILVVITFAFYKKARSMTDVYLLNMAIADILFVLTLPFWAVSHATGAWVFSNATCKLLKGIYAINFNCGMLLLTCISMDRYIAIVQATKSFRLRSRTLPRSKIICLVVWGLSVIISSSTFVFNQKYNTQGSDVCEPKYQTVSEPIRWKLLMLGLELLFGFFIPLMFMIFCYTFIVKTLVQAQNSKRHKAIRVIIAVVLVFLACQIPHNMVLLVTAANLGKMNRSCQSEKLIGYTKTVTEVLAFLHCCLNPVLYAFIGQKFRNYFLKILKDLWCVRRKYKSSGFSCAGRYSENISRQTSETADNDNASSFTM

Beta-galactosidase = Beta-galactosidase (Escherichia coli, UniProt Q8VNN2); experiment: beta-galactosidase enzyme inhibitors and activators, dose response, artefact control for CCR6 antagonist project, biochemical, E. coli enzyme, set 3 (AID 504712); format: functional
Sequence of Beta-galactosidase (Q8VNN2 whole entry): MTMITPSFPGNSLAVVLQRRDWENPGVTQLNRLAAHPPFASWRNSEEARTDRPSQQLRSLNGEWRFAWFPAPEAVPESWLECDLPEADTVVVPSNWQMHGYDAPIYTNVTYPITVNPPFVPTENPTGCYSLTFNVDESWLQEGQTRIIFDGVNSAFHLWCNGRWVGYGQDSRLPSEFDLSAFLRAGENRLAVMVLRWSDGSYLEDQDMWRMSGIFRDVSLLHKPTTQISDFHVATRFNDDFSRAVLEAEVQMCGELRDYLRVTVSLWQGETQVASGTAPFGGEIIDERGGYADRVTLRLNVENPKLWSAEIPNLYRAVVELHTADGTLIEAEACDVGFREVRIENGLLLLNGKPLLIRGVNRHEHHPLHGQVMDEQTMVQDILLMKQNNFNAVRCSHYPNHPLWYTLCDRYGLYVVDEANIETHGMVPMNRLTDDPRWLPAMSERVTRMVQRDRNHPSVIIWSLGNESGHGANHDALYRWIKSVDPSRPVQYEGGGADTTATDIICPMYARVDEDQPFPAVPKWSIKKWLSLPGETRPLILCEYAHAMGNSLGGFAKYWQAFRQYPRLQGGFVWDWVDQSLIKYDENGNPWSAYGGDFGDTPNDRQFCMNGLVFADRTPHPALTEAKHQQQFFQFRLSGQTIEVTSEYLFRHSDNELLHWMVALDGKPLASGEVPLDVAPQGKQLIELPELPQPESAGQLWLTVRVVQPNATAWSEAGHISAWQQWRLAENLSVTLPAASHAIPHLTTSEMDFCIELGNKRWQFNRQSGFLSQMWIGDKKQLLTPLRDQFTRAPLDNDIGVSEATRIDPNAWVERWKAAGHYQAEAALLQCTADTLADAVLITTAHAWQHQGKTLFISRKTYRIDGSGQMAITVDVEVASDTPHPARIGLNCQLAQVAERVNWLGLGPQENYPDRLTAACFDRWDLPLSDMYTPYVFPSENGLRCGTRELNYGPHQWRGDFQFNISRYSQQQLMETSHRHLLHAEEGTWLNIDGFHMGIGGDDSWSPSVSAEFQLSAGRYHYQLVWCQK

Nonstructural protein 1 = Nonstructural protein 1 (Influenza A virus, UniProt Q194T2); format: functional, Influenza A virus (A/California/07/2009(H1N1))
Sequence of Nonstructural protein 1 (Q194T2 whole entry): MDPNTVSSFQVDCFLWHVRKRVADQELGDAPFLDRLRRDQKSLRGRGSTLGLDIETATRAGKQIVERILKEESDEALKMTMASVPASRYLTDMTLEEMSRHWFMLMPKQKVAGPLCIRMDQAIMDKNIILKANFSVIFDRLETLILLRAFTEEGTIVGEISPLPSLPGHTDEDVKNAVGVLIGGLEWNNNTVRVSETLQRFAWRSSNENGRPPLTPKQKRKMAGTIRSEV

Hexokinase HKDC1 = biological target: T1, Hexokinase HKDC1 (Homo sapiens, UniProt Q2TB90); experiment: HKDC1 hexokinase inhibitors, dose response, biochemical, W721R variant (AID 504729); format: functional
T1 sequence (Q2TB90 whole entry): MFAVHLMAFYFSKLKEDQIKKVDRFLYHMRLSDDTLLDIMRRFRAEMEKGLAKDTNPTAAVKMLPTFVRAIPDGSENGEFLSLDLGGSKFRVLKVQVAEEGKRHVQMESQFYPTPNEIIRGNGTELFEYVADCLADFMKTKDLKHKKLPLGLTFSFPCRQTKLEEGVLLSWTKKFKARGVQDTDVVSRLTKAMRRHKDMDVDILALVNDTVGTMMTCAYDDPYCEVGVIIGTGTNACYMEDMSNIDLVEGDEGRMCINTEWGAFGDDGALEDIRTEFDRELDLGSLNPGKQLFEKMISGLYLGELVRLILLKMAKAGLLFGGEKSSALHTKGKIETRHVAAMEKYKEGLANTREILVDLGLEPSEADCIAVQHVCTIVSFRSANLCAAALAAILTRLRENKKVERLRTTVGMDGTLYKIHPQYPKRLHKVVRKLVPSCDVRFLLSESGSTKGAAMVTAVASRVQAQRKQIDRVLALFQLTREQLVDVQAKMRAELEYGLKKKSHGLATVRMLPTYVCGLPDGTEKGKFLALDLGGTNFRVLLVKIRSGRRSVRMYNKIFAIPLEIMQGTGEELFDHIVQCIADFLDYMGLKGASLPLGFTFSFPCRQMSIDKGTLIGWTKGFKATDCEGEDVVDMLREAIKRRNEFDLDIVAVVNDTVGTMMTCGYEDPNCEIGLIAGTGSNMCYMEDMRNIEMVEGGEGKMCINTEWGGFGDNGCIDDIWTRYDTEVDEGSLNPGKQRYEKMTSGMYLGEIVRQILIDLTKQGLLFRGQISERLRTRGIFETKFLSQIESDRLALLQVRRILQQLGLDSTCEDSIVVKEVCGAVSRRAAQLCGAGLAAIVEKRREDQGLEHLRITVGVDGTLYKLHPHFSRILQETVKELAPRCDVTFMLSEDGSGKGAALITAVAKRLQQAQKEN

Protein RecA = biological target: T2, Protein RecA (Mycobacterium tuberculosis, UniProt P9WHJ3); experiment: Fluorescence Cell-Free Homogeneous Dose Retest to Identify Inhibitors of RecA-Intein Splicing Activity. [Related pubchem assays (depositor defined):AID2097, AID2223, AID489010, AID492950]; format: functional
T2 sequence (P9WHJ3 whole entry): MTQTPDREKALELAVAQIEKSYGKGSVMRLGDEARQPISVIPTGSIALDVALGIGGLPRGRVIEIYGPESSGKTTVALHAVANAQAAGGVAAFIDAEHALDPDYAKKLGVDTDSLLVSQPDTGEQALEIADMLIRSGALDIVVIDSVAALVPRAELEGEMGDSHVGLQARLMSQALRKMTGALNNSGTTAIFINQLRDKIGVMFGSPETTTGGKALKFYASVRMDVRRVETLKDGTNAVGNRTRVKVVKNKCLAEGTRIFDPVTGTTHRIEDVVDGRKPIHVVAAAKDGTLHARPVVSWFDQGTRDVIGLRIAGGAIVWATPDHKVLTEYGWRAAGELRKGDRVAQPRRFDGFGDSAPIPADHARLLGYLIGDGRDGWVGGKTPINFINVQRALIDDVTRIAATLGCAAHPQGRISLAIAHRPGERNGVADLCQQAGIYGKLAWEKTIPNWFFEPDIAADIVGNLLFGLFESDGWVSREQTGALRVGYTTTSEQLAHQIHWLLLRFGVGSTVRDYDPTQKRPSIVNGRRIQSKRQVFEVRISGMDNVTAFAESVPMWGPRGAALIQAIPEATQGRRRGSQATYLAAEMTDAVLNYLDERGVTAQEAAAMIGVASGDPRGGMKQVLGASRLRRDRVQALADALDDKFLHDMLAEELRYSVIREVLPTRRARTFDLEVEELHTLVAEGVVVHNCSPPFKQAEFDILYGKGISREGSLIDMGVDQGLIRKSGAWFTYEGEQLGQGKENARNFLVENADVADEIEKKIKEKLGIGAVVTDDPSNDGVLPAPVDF

INS1 = experiment: beta cell apoptosis inhibitors, cytokine rescue, dose response, luminescence, retest (AID 449756); format: functional, cell-based; conditions: Rattus norvegicus;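 also: cell death triggered by IL-1 beta plus TNF-alpha plus IFN-gamma mixture; protective hits raise ATP signal compared with cytokine alone wells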

O=C1C(Nc2ccccc2)=C/C(=N/S(=O)(=O)c2cccs2)c2ccccc21
EC50 [1]: 2660 nM (inconclusive)
EC50 [2]: 2810 nM (active)
EC50 [3]: 1350 nM (active)
EC50 [4]: 1140 nM (active)
EC50 [5]: 1290 nM (active)
IC50 [6]: 348 nM (active)
EC50 (Streptococcus): 4210 nM (active)
CC50 [7]: 13900 nM (active)
IC50 [8]: 34800 nM (inactive)
IC50 (Beta-galactosidase): > 66600 nM (inactive)
IC50 (Nonstructural protein 1): 9040 nM (active)
IC50 (Hexokinase HKDC1): 4880 nM (active)
EC50 (Protein RecA): 143 nM (active)
AC50 (INS1): 907 nM (active)
